Calls of active or inactive are those of the source.
Assays:
[1] = microbe, parasite or virus in culture; type: functional; conditions: Mycobacterium tuberculosis
[2] = molecular target: T1, Replicative DNA helicase DnaB (Mycobacterium tuberculosis, UniProt P9WMR3); experiment: DnaB intein splicing inhibitors, dose response, biochemical, cell-free fluorescence (AID 449749); type: functional
T1 sequence (P9WMR3 whole entry): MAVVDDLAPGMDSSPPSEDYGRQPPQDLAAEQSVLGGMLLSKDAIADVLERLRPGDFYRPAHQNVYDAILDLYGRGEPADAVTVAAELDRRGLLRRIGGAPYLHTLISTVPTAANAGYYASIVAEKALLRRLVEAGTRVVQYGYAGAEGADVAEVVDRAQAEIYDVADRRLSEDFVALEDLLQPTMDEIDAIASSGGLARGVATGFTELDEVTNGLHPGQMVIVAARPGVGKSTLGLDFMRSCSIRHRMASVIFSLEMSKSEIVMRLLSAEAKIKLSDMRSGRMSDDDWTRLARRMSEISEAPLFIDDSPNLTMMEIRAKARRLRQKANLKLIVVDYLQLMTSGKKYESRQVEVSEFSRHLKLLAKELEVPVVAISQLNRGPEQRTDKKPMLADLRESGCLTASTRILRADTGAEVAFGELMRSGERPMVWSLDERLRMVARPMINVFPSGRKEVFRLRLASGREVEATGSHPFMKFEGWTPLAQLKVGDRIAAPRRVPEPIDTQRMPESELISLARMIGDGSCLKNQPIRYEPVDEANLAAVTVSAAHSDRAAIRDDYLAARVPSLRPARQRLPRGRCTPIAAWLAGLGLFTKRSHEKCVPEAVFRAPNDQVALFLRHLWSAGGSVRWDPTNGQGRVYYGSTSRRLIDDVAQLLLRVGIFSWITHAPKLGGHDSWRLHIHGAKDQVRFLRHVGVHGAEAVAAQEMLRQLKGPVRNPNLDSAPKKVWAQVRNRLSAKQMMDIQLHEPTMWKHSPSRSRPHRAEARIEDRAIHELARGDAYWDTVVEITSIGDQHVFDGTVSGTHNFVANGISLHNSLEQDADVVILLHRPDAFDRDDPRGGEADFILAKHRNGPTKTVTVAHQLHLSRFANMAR

Vero [3] = experiment: viability of Vero cells under compound – cytotoxicity control for flavivirus capping enzyme inhibitors (AID 588742); type: functional; conditions: Chlorocebus sabaeus
Vero [4] = experiment: cells; type: functional, cell-based; conditions: Chlorocebus sabaeus
Protein RecA = molecular target: T2, Protein RecA (Mycobacterium tuberculosis, UniProt P9WHJ3); experiment: Fluorescence Cell-Free Homogeneous Dose Retest to Identify Inhibitors of RecA-Intein Splicing Activity. [Related pubchem assays (depositor defined):AID2097, AID2223, AID489010, AID492950]; type: functional
T2 sequence (P9WHJ3 whole entry): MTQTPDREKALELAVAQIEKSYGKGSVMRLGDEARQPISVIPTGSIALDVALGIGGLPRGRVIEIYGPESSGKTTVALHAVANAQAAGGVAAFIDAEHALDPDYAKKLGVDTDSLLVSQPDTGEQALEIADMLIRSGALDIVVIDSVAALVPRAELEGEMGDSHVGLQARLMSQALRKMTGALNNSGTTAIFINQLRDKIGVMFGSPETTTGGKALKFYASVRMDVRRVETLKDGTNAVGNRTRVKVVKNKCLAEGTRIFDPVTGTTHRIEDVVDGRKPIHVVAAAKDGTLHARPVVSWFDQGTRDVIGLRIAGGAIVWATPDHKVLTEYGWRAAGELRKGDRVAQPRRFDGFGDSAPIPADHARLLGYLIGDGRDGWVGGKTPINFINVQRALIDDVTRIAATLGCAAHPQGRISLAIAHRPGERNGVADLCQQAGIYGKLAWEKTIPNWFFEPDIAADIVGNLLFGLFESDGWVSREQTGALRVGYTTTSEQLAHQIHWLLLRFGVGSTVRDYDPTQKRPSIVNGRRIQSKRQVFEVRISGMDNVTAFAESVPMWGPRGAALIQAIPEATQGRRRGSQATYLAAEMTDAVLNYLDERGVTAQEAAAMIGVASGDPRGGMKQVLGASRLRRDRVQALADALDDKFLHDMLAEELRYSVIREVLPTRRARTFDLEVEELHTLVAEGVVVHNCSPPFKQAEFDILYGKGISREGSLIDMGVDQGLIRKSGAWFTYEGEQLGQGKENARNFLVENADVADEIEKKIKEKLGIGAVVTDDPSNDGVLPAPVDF

Vero [5] = experiment: cells; type: functional; conditions: Chlorocebus sabaeus
[6] = decrease of insulin promoter-GFP reporter – imaging, high-content screening, mouse beta cells (AID 1628); type: functional; conditions: MIN6
[7] = MIN6 cell viability loss – mouse insulinoma, cytotoxicity control, dose response (AID 2122); type: functional;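 further: confirmatory high-throughput counterscreen run to flag cytotoxic compounds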
[8] = Trypanosoma cruzi growth suppression in host cells – NIH3T3 host cells, beta-gal luminescence, confirmation (AID 2044); type: functional, cell-based;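 further: intracellular parasites grown in NIH/3T3 mouse fibroblasts as host cells; luminescent beta-galactosidase reporter signal from transgenic T. cruzi replicating inside host cells; inhibitors lower the luminescence signal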
[9] = NIH3T3 cell viability loss – ATP luminescence, mouse fibroblasts, counter-screen, dose response (AID 2010); type: functional, cell-based;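 further: cells exposed to compound for about 90 hours before reading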
[10] = Luminescent dose response cell-based high throughput screening assay for inhibitors of the Janus kinase 2 mutant JAK2V617F. [Related pubchem assays: 1446 (Primary screen.), 1521 (Confirmation assay.), 1486 (Counter screen.)]; type: functional
HEK293 [11] = experiment: inhibition of NOD1-driven NF-kB reporter – cell-based, luminescence, uHTS, primary screen (AID 1578); type: functional; conditions: Homo sapiens
HEK293 [12] = experiment: cells; type: functional, cell-based; conditions: Homo sapiens
HEK293 [13] = experiment: cells; type: functional, cell-based; conditions: Homo sapiens; remark: listed apart in the source
HEK293 [14] = experiment: NOD2 signaling inhibitors in MDP-stimulated cells, cell-based, uHTS, luminescence (AID 2001); type: functional; conditions: Homo sapiens
[15] = THP-1 cell cytotoxicity, dose response, cytotoxicity control for non-replicating M. tuberculosis project (AID 489025); type: functional
[16] = Luminescence Cell-Based Dose Retest to Confirm Inhibitors of Cancer Stem Cells. [Related pubchem assays (depositor defined):AID2717, AID2721]; type: functional; conditions: Homo sapiens
[17] = Vero E6 cell cytotoxicity, dose response, cytotoxicity control for non-replicating M. tuberculosis project, secondary assay (AID 492998); type: functional, VeroE6; conditions: Vero C1008
Hexokinase HKDC1 = molecular target: T3, Hexokinase HKDC1 (Homo sapiens, UniProt Q2TB90); experiment: inhibition of HKDC1 glucose phosphorylation – biochemical, W721R variant, dose response (AID 504729); type: functional
T3 sequence (Q2TB90 whole entry): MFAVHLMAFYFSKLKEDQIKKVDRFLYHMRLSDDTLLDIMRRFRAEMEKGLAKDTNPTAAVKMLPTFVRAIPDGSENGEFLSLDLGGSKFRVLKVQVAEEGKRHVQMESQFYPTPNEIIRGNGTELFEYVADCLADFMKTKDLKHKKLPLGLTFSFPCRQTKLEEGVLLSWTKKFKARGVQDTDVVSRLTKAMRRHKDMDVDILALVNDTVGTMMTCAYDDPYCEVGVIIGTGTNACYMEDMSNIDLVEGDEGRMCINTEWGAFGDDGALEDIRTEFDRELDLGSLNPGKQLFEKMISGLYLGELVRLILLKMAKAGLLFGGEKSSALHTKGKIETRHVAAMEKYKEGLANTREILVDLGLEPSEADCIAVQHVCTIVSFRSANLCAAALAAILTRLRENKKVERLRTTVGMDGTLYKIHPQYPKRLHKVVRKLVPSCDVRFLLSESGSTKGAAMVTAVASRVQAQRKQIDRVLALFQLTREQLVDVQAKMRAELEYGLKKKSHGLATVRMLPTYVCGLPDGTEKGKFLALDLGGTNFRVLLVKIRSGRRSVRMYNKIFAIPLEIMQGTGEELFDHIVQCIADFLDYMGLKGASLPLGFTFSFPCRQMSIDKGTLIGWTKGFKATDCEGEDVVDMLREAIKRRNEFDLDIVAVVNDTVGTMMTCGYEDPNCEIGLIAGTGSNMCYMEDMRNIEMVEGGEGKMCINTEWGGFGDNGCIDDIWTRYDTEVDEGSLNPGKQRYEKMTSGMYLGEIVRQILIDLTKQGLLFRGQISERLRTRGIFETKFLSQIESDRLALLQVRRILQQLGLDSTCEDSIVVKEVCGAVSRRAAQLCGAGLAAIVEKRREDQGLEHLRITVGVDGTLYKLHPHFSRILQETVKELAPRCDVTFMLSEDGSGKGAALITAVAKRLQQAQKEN

cells = type: functional
[18] = reduction of Shn3 3'UTR-driven luciferase in osteoblasts – cell-based, Clone20 osteoblasts, firefly luciferase, cherry-picked, dose response (AID 624132); type: functional;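 further: firefly luciferase luminescence from reporter carrying the Shn3 3'UTR in osteoblasts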
[19] = loss of viability in HepG2 cells – cell-based, CellTiter-Glo, cherry-picked, cytotoxicity control for Shn3 inhibitor project, dose response (AID 624134); type: functional
[20] = non-specific 3'UTR reporter inhibition in Clone20-Shn3RL – cell-based, Renilla luciferase, cherry-picked, counter-screen for Shn3 inhibitor project, dose response (AID 624133); type: functional
SUMO-activating enzyme [21] = molecular target: T4, SUMO-activating enzyme (Homo sapiens, UniProt Q9UBT2); experiment: blockers of UBC9-mediated SUMO conjugation – biochemical, AlphaScreen, SUMOylation inhibitor project, confirmation (AID 2018); type: functional
T4 sequence (Q9UBE0 whole entry): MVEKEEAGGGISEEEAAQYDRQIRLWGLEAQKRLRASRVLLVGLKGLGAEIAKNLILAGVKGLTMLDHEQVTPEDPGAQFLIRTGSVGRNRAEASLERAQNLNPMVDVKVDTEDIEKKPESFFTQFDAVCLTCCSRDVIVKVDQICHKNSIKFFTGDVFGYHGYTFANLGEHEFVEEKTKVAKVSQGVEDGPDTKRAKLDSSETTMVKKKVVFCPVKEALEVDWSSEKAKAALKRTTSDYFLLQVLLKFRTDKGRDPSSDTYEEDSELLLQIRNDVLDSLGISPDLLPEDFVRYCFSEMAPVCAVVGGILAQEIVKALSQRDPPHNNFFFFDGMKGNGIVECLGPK
T4 sequence (Q9UBT2 whole entry): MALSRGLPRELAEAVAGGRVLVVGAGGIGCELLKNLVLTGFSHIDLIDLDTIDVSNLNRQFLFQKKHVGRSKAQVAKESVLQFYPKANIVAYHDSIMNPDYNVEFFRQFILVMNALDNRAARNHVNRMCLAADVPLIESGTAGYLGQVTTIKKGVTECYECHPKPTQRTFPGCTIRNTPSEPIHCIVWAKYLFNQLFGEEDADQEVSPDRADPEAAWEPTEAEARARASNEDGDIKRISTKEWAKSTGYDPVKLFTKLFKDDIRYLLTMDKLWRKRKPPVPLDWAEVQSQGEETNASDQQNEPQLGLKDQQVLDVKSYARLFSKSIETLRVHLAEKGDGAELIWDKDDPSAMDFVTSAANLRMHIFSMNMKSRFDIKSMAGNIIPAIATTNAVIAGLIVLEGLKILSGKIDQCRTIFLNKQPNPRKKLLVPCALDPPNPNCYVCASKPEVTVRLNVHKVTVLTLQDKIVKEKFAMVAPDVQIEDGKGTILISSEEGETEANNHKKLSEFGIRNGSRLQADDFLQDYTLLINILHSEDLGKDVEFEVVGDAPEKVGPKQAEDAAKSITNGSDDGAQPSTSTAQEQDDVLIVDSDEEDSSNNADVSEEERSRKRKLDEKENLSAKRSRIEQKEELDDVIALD

Beta-galactosidase = Beta-galactosidase (Escherichia coli, UniProt Q8VNN2); experiment: PubChem AID 485352; type: functional
Beta-galactosidase, sequence (Q8VNN2 whole entry): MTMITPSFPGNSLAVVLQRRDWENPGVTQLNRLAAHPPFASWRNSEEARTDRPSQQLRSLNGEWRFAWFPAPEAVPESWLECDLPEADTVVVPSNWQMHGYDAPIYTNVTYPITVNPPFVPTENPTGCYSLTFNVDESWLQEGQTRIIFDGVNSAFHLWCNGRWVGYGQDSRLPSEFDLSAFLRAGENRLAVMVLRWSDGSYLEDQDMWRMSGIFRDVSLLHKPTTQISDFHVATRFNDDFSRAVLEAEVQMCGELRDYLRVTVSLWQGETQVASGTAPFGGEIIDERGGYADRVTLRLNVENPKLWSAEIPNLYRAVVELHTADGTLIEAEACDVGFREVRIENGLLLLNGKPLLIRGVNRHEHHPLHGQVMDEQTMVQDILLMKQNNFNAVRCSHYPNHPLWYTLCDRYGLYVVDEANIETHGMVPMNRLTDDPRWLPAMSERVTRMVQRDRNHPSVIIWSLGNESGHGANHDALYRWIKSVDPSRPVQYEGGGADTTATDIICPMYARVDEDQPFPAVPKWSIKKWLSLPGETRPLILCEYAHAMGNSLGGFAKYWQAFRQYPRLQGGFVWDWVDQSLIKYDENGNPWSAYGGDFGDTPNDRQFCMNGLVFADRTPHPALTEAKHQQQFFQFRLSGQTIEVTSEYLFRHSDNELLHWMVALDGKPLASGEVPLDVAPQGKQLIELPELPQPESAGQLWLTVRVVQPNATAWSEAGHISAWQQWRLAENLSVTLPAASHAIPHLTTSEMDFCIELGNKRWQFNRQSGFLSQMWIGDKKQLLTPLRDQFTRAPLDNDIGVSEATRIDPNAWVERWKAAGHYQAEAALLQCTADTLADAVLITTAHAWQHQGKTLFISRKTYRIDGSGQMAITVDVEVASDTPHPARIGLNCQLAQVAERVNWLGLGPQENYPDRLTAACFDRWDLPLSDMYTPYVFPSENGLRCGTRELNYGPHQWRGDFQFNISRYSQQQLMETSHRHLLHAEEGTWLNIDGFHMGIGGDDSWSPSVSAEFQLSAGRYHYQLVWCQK

SUMO-activating enzyme [22] = molecular target: T4, SUMO-activating enzyme; experiment: blockers of SAE1/SAE2–UBC9 SUMO transfer – biochemical, HTRF, uHTS, primary screen (AID 2006); type: protein-complex assay
[23] = molecular target: T5, Type-1 angiotensin II receptor (Homo sapiens, UniProt P30556); experiment: antagonism of angiotensin II type 1 receptor – cell-based, uHTS hits, selectivity assay for APJ receptor antagonist project, dose response (AID 463214); type: functional;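 further: antagonist potency against angiotensin II stimulated AT1 response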
T5 sequence (P30556 whole entry): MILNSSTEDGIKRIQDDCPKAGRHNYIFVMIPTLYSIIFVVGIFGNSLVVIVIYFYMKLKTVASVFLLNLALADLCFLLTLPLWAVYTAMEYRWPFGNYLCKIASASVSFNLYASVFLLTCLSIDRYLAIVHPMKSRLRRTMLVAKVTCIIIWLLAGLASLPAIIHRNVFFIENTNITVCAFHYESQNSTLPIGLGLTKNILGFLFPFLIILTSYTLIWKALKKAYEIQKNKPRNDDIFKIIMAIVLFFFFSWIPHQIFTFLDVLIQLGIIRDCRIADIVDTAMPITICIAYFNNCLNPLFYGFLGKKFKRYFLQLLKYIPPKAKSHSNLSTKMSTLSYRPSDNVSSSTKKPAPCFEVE

[24] = molecular target: T6, Mannose-6-phosphate isomerase (Homo sapiens, UniProt P34949); experiment: MPI inhibition at elevated mannose 6-phosphate – biochemical, fluorescence intensity, high mannose 6-phosphate, primary screen (AID 1220)
T6 sequence (P34949 whole entry): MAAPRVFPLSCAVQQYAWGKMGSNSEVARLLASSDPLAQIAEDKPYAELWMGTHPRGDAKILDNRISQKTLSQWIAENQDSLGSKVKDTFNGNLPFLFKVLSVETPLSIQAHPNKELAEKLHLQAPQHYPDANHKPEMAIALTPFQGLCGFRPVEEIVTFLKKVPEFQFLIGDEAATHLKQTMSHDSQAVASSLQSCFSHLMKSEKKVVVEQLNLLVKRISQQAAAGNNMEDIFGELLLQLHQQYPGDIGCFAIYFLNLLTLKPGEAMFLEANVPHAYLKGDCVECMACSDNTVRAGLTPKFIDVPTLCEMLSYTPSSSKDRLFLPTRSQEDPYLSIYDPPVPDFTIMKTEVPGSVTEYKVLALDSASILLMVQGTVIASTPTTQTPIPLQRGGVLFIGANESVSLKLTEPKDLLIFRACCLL

[25] = molecular target: T7, Sentrin-specific protease 8 (Homo sapiens, UniProt Q96LD8); type: functional
T7 sequence (Q96LD8 whole entry): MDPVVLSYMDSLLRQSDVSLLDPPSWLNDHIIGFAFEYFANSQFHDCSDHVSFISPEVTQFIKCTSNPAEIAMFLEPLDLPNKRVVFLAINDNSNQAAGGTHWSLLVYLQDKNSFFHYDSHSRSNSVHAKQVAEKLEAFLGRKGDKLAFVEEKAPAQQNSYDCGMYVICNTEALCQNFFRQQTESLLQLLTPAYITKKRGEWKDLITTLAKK

[26] = molecular target: T7, Sentrin-specific protease 8; type: functional; remark: listed apart in the source

SMILES: Oc1cc(N=Nc2ccc(Cl)cc2)nc(O)n1
- CC50 [1]: 8.44 µM (active)
- AC50 [2]: 2.37 µM (active)
- CC50 (Vero [3]): 14.8 µM (active)
- IC50 (Vero [4]): 21.9 µM (active)
- EC50 (Protein RecA): 1.2 µM (active)
- CC50 (Vero [5]): > 25 µM (active)

SMILES: Cc1ccc(OCC(O)Cn2c(=N)n(CCN3CCCCC3)c3ccccc32)cc1 (configuration not stated)
- IC50 [6]: 1.28 µM (active)
- IC50 [7]: 3.24 µM (active)
- EC50 [8]: 3.83 µM (active)
- EC50 [9]: > 60 µM (not active)
- CC50 (Vero [5]): 13.8 µM (active)

SMILES: Cc1nc([N+](=O)[O-])c(Br)n1CC(=O)c1ccc2ccccc2c1
- IC50 [10]: 1.88 µM (active)
- EC50 (HEK293 [11]): 17.6 µM (active)
- IC50 (HEK293 [12]): 3.46 µM (active)
- IC50 (HEK293 [13]): > 20 µM (inactive)
- IC50 (HEK293 [14]): 3.77 µM (active)
- CC50 [1]: 16 µM (active)
- CC50 [15]: 17.4 µM (active)
- AC50 [16]: 4.44 µM (active)
- CC50 [17]: 16.3 µM (active)
- IC50 (Hexokinase HKDC1): 20.6 µM (inactive)
- IC50 (cells): 10.1 µM (active)
- AC50 [18]: 10.7 µM (active)
- AC50 [19]: 63.7 µM (active)
- AC50 [20]: 3.22 µM (active)

SMILES: O=C1Nc2ccc([N+](=O)[O-])cc2C1=Nc1cccc(CO)c1
- IC50 (SUMO-activating enzyme [21]): 5.51 µM (active)
- EC50 (Beta-galactosidase): > 40 µM (inactive)
- IC50 (SUMO-activating enzyme [22]): 18.7 µM (active)
- IC50 [23]: > 40 µM (not active)
- IC50 [24]: 12.4 µM (active)
- IC50 [25]: 8.6 µM (active)
- IC50 [26]: 7.06 µM (active)

Source: ChEMBL document CHEMBL1201862, “PubChem BioAssay data set” (2004)
